In ChEMBL document CHEMBL1140804, “Design, synthesis and evaluation of trifluoromethane sulfonamide derivatives as new potent and selective peroxisome proliferator-activated receptor alpha agonists” (Bioorg Med Chem Lett, 2008):

What was measured:
[1] = molecular target: T1, Peroxisome proliferator-activated receptor alpha (Homo sapiens, UniProt Q07869)
T1 sequence (Q07869 whole entry): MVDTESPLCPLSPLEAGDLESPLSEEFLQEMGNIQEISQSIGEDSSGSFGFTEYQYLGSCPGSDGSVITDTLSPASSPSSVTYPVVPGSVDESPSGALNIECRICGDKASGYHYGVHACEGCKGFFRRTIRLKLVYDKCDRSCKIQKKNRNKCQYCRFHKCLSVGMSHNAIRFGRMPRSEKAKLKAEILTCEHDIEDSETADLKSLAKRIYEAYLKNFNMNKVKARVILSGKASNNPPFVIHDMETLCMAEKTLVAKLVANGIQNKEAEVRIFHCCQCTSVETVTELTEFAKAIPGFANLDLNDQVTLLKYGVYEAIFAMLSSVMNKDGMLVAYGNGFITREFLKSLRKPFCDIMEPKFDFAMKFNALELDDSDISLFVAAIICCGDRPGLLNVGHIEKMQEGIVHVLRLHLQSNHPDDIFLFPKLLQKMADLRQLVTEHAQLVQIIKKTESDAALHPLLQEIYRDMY
Description: Agonist activity at human PPARalpha assessed as receptor activation by cell based assay

[2] = molecular target: T2, Peroxisome proliferator-activated receptor alpha (Mus musculus, UniProt P23204)
T2 sequence (P23204 whole entry): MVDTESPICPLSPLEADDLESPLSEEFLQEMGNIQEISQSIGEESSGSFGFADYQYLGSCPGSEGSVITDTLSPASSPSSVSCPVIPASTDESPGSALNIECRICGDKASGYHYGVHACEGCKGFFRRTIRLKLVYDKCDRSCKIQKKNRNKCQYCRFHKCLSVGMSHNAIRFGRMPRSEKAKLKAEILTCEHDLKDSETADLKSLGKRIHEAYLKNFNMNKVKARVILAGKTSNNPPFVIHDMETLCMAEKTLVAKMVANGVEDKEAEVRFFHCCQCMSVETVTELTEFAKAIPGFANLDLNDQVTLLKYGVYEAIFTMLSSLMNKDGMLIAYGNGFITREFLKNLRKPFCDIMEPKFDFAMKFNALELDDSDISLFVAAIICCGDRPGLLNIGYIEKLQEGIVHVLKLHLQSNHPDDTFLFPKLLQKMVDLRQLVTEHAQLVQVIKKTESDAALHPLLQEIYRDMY
Description: (§1) Agonist activity at mouse PPARalpha assessed as receptor activation by cell based assay

[3] = molecular target: T3, Peroxisome proliferator-activated receptor delta (Homo sapiens, UniProt Q03181)
T3 sequence (Q03181 whole entry): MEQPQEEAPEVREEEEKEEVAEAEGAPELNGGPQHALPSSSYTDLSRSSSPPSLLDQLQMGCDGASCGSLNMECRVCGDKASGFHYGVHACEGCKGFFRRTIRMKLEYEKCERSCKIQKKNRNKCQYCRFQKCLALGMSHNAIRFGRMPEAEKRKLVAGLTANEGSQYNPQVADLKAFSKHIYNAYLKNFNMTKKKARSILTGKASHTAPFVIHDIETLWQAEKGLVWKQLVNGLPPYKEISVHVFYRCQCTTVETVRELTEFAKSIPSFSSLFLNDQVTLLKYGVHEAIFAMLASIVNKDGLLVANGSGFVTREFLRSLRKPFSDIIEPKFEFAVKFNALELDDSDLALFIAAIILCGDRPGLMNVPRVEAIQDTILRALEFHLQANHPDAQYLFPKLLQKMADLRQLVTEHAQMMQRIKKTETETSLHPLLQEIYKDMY
Description: Agonist activity at human PPARdelta assessed as receptor activation by cell based assay

[4] = molecular target: T4, Peroxisome proliferator-activated receptor delta (Mus musculus, UniProt P35396)
T4 sequence (P35396 whole entry): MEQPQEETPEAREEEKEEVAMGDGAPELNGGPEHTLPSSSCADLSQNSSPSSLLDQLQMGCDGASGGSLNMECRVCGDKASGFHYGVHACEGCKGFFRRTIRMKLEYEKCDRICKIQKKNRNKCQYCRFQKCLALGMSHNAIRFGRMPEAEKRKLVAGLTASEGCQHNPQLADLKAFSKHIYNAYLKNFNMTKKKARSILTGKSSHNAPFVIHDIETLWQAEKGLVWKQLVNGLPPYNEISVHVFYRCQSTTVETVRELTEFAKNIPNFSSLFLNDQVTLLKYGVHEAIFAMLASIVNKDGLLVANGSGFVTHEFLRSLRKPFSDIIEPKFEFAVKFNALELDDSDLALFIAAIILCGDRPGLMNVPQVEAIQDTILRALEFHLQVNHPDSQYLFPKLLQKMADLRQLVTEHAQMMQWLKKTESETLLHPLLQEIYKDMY
Description: Agonist activity at mouse PPARdelta assessed as receptor activation by cell based assay

[5] = molecular target: T5, Peroxisome proliferator-activated receptor gamma (Homo sapiens, UniProt P37231)
T5 sequence (P37231 whole entry): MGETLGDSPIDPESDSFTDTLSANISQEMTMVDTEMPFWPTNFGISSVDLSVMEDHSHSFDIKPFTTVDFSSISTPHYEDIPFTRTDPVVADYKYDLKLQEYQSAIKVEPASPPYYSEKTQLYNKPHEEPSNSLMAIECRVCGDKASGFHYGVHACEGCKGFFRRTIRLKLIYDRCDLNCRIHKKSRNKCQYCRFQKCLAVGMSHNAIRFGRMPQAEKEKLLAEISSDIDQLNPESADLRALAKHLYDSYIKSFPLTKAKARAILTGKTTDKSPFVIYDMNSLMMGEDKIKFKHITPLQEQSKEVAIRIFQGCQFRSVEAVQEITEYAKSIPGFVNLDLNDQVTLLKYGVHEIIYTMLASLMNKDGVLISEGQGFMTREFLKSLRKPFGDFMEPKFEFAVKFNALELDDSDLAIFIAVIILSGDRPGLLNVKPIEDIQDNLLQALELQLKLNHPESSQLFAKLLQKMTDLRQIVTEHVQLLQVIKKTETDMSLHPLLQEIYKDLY
Description: Agonist activity at human PPARgamma assessed as receptor activation by cell based assay

[6] = molecular target: T6, Peroxisome proliferator-activated receptor gamma (Mus musculus, UniProt P37238)
T6 sequence (P37238 whole entry): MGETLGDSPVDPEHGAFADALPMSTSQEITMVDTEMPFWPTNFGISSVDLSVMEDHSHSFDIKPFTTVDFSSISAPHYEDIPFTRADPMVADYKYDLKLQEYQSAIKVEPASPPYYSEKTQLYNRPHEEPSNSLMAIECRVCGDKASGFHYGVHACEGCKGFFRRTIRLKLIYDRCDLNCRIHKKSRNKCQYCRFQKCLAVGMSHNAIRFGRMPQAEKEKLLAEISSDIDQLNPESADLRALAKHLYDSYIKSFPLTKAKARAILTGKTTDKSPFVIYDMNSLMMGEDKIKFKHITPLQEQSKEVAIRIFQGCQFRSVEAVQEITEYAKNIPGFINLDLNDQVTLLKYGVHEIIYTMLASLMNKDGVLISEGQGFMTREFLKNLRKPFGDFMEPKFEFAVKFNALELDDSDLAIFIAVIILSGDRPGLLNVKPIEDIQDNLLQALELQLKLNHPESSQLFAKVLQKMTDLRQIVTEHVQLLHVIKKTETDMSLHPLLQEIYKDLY
Description: Agonist activity at mouse PPARgamma assessed as receptor activation by cell based assay

[7] = molecular target: T7, Peroxisome proliferator-activated receptor alpha (Mus musculus) (UniProt P23204)
T7 sequence (whole entry): T2 sequence (P23204 whole entry)
Description: as §1

Structure (SMILES) | EC50 [1] | EC50 [2] | EC50 [3] | EC50 [4] | EC50 [5] | EC50 [6] | Activity [7]
Cc1nc(-c2ccc(C(F)(F)F)cc2)sc1C(=O)NCc1ccc(NS(=O)(=O)C(F)(F)F)cc1 | 0.3 nM | 2 nM | 400 nM | 300 nM | 500 nM | 600 nM | 98%
CCCCS(=O)(=O)Nc1ccc(CNC(=O)c2sc(-c3ccc(C(F)(F)F)cc3)nc2C)cc1 | 320 nM | > 10000 nM | > 10000 nM | > 10000 nM | 5500 nM | 6700 nM | 
Cc1nc(-c2ccc(C(F)(F)F)cc2)sc1C(=O)NCc1ccc(OC(C)(C)C(=O)O)cc1 [GW590735] |  | 20 nM |  | 1700 nM | 9700 nM | 9700 nM | 103%
Cc1csc(-c2ccc(C(=O)NCc3ccc(NS(=O)(=O)C(F)(F)F)cc3)cc2)n1 | 60 nM | 80 nM |  |  |  |  | 96%
Cc1nc(-c2ccc(C(F)(F)F)cc2)sc1C(=O)NCc1ccc(NS(=O)(=O)CC(F)(F)F)cc1 | 3 nM | 60 nM | > 10000 nM | > 10000 nM | 300 nM | 300 nM | 74%
COCc1nc(-c2ccc(C(=O)NCc3ccc(NS(=O)(=O)C(F)(F)F)cc3)cc2)no1 | 360 nM | 700 nM |  |  |  |  | 116%
Cc1nc(-c2ccc(C(F)(F)F)cc2)sc1C(=O)NCc1ccc(CNS(=O)(=O)C(F)(F)F)cc1 | 80 nM | > 10000 nM | > 10000 nM | > 10000 nM | > 10000 nM | > 10000 nM | 
Cc1nc(-c2ccc(C(F)(F)F)cc2)sc1C(=O)NCc1ccc(-c2c(O)c(=O)c2=O)cc1 | > 10000 nM | > 10000 nM | > 10000 nM | > 10000 nM | > 10000 nM | > 10000 nM | 
Cc1nc(-c2ccc(C(F)(F)F)cc2)sc1C(=O)NCc1ccc(NS(C)(=O)=O)cc1 | 60 nM | 800 nM | > 10000 nM | > 10000 nM | > 10000 nM | > 10000 nM | 78%
Cc1nc(-c2ccc(C(F)(F)F)cc2)sc1C(=O)NCc1ccc(OCc2nn[nH]n2)cc1 | > 10000 nM | > 10000 nM | > 10000 nM | > 10000 nM | > 10000 nM | > 10000 nM | 
Cc1nc(-c2ccc(C(F)(F)F)cc2)sc1C(=O)NCc1ccc(OC(C)(C)C(=O)NS(=O)(=O)C(F)(F)F)cc1 | > 10000 nM | > 10000 nM | > 10000 nM | > 10000 nM | > 10000 nM | > 10000 nM | 
Cc1nc(-c2ccc(C(F)(F)F)cc2)sc1C(=O)NCc1ccc(NS(=O)(=O)C(C)C)cc1 | 50 nM | > 10000 nM | > 10000 nM | > 10000 nM | > 10000 nM | > 10000 nM | 
CC(C)(Oc1ccc(CNC(=O)Cc2ccc(-c3ccc(Cl)cc3)cc2)cc1)C(=O)O | 2800 nM | > 25000 nM |  |  |  |  | 
O=C(Cc1ccc(-c2ccc(Cl)cc2)cc1)NCc1ccc(NS(=O)(=O)C(F)(F)F)cc1 | 80 nM | 340 nM |  |  |  |  | 0.34%
Cc1nc(-c2ccc(C(F)(F)F)cc2)sc1C(=O)NCc1ccc(NC(=O)C(F)(F)F)cc1 | 450 nM | > 10000 nM | > 10000 nM | > 10000 nM | > 10000 nM | > 10000 nM | 

Second part, the compound after the results:

EC50 [1] | EC50 [2] | EC50 [3] | EC50 [4] | EC50 [5] | EC50 [6] | Activity [7] | Structure (SMILES)
1000 nM | > 25000 nM |  |  |  |  |  | CC(C)(Oc1ccc(CNC(=O)c2ccc(-c3ccc(C#N)cc3)cc2)cc1)C(=O)O
3000 nM | > 25000 nM |  |  |  |  |  | COCc1nc(-c2ccc(C(=O)NCc3ccc(OC(C)(C)C(=O)O)cc3)cc2)no1
1000 nM | > 10000 nM | > 10000 nM | > 10000 nM | > 10000 nM | > 10000 nM |  | Cc1ccc(S(=O)(=O)Nc2ccc(CNC(=O)c3sc(-c4ccc(C(F)(F)F)cc4)nc3C)cc2)cc1
6000 nM | > 25000 nM |  |  |  |  |  | COc1ccc2sc(C(=O)NCc3ccc(OC(C)(C)C(=O)O)cc3)cc2c1
70 nM | 1000 nM |  |  |  |  | 130% | CC(C)(Oc1ccc(CNC(=O)c2ccc(-c3ccc(Cl)cc3)cc2)cc1)C(=O)O
20 nM | 200 nM |  |  |  |  | 152% | N#Cc1ccc(-c2ccc(C(=O)NCc3ccc(NS(=O)(=O)C(F)(F)F)cc3)cc2)cc1
80 nM | 130 nM |  |  |  |  | 132% | COc1ccc2sc(C(=O)NCc3ccc(NS(=O)(=O)C(F)(F)F)cc3)cc2c1
5000 nM | > 25000 nM |  |  |  |  |  | Cc1csc(-c2ccc(C(=O)NCc3ccc(OC(C)(C)C(=O)O)cc3)cc2)n1
